Assay results from patent US20230085307A1, “PYRIDAZINONE COMPOUND AND HERBICIDE” (NISSAN CHEMICAL CORPORATION, priority 2019, published 2023).

Assays:
[1] = test system: redroot pigweed; experiment: Test Example 4: herbicidal effect by soil treatment (Table 19, symbol N); assay type: in vivo, redroot pigweed (Amaranthus retroflexus); conditions: for herbicidal effect rating, N: redroot pigweed: amount of applied herbicide 320 g/ha; for N: redroot pigweed, herbicidal effect rating: AAH 320 g/ha
How it was run: (§1)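 Herbicidal effect was rated 3 weeks after treatment, using the scoring criteria of an earlier test. The compound, formulated as an emulsion and diluted in water to a set herbicide amount, had been sprayed uniformly on soil over freshly sown seeds. Growth took place in a greenhouse at 25° C. to 30° C.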

[2] = test system: Japanese bulrush; experiment: Test Example 2: herbicidal activity, application during weed generation under submerged conditions (Table 17, symbol B); assay type: in vivo, Japanese bulrush (Schoenoplectus juncoides); conditions: AAH 320 g/ha; application during weed generation, submerged conditions
How it was run: (§2)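 Steps: fill Wagner pots with alluvial soil; add water to give 4 cm depth; sow the species mixed; grow under glass at 25–30° C.; at 1–2 leaves apply water-diluted emulsion formulation to the water surface at a fixed herbicide amount; score after 3 weeks.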

[3] = test system: oval-leafed pondweed; experiment: Test Example 2: herbicidal activity, application during weed generation under submerged conditions (Table 17, symbol C); assay type: in vivo, oval-leafed pondweed (Monochoria vaginalis); conditions: AAH 320 g/ha; application during weed generation, submerged conditions
How it was run: as §2

[4] = test system: green foxtail; experiment: Test Example 5: herbicidal effect by foliage application, plastic box (Table 20, symbol G); assay type: in vivo, green foxtail (Setaria viridis); conditions: foliage application, three weeks after application; for herbicidal effect grade, G: green foxtail: 320 g/ha; for G: green foxtail, herbicidal effect: AAH 320 g/ha
How it was run: (§3)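 Foliar spray test: emulsion formulation diluted in water to a set application rate, sprayed onto 14-day-old plants raised in diluvial soil at 25° C to 30° C under glass. Both herbicidal effect and crop effect rated visually three weeks later.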

[5] = test system: velvetleaf; experiment: Test Example 4: herbicidal effect by soil treatment (Table 19, symbol M); assay type: in vivo, velvetleaf (Abutilon theophrasti); conditions: for herbicidal effect rating, M: velvetleaf: amount of applied herbicide 320 g/ha; for M: velvetleaf, herbicidal effect rating: AAH 320 g/ha
How it was run: as §1

[6] = test system: Italian ryegrass; experiment: Test Example 5: herbicidal effect by foliage application, plastic box (Table 20, symbol K); assay type: in vivo, Italian ryegrass (Lolium multiflorum); conditions: foliage application, three weeks after application; for herbicidal effect grade, K: Italian ryegrass: 320 g/ha; for K: Italian ryegrass, herbicidal effect: AAH 320 g/ha
How it was run: as §3

[7] = test system: barnyard grass; experiment: Test Example 4: herbicidal effect by soil treatment (Table 19, symbol H); assay type: in vivo, barnyard grass (Echinochloa crus-galli); conditions: for herbicidal effect rating, H: barnyard grass: amount of applied herbicide 320 g/ha; for H: barnyard grass, herbicidal effect rating: AAH 320 g/ha
How it was run: as §1

[8] = test system: wild oat; experiment: Test Example 4: herbicidal effect by soil treatment (Table 19, symbol I); assay type: in vivo, wild oat (Avena fatua); conditions: for herbicidal effect rating, I: wild oat: amount of applied herbicide 320 g/ha; for I: wild oat, herbicidal effect rating: AAH 320 g/ha
How it was run: as §1

[9] = test system: persian speedwell; experiment: Test Example 5: herbicidal effect by foliage application, plastic box (Table 20, symbol R); assay type: in vivo, Persian speedwell (Veronica persica); conditions: foliage application, three weeks after application; for herbicidal effect grade, R: persian speedwell: 320 g/ha; for R: persian speedwell, herbicidal effect: AAH 320 g/ha
How it was run: as §3

[10] = test system: green foxtail; experiment: Test Example 4: herbicidal effect by soil treatment (Table 19, symbol G); assay type: in vivo, green foxtail (Setaria viridis); conditions: for herbicidal effect rating, G: green foxtail: amount of applied herbicide 320 g/ha; for G: green foxtail, herbicidal effect rating: AAH 320 g/ha
How it was run: as §1

[11] = test system: lambsquarters; experiment: Test Example 5: herbicidal effect by foliage application, plastic box (Table 20, symbol O); assay type: in vivo, lambsquarters (Chenopodium album); conditions: foliage application, three weeks after application; for herbicidal effect grade, O: lambsquarters: 320 g/ha; for O: lambsquarters, herbicidal effect: AAH 320 g/ha
How it was run: as §3

[12] = test system: southern crabgrass; experiment: Test Example 4: herbicidal effect by soil treatment (Table 19, symbol F); assay type: in vivo, southern crabgrass (Digitaria ciliaris); conditions: for herbicidal effect rating, F: southern crabgrass: amount of applied herbicide 320 g/ha; for F: southern crabgrass, herbicidal effect rating: AAH 320 g/ha
How it was run: as §1

[13] = test system: late watergrass; experiment: Test Example 2: herbicidal activity, application during weed generation under submerged conditions (Table 17, symbol A); assay type: in vivo, late watergrass (Echinochloa oryzicola); conditions: AAH 320 g/ha; application during weed generation, submerged conditions
How it was run: as §2

[14] = test system: blackgrass; experiment: Test Example 4: herbicidal effect by soil treatment (Table 19, symbol J); assay type: in vivo, blackgrass (Alopecurus myosuroides); conditions: for herbicidal effect rating, J: blackgrass: amount of applied herbicide 320 g/ha; for J: blackgrass, herbicidal effect rating: AAH 320 g/ha
How it was run: as §1

| Structure (SMILES) | herbicidal effect rating, N: redroot pigweed [1] | herbicidal effect rating, B: Japanese bulrush [2] | herbicidal effect rating, C: oval-leafed pondweed [3] | herbicidal effect grade, G: green foxtail [4] | herbicidal effect rating, M: velvetleaf [5] | herbicidal effect grade, K: Italian ryegrass [6] | herbicidal effect rating, H: barnyard grass [7] | herbicidal effect rating, I: wild oat [8] | herbicidal effect grade, R: persian speedwell [9] | herbicidal effect rating, G: green foxtail [10] | herbicidal effect grade, O: lambsquarters [11] | herbicidal effect rating, F: southern crabgrass [12] | herbicidal effect rating, A: late watergrass [13] | herbicidal effect rating, J: blackgrass [14] | G: green foxtail, herbicidal effect [4] | K: Italian ryegrass, herbicidal effect [6] | R: persian speedwell, herbicidal effect [9] | O: lambsquarters, herbicidal effect [11] | N: redroot pigweed, herbicidal effect rating [1] | M: velvetleaf, herbicidal effect rating [5] | other results |
| --- | --- | --- | --- | --- | --- | --- | --- | --- | --- | --- | --- | --- | --- | --- | --- | --- | --- | --- | --- | --- | --- |
| CCCC(=O)Oc1c(C)nn(C)c(=O)c1-c1c(-c2ccc(OCC)cc2)sc2ccccc12 [1-014] | 0 (Herbicidal rate of 5% or less (almost no effect)) | 3 (Herbicidal rate of 40% or more and less than 70%) | 3 (Herbicidal rate of 40% or more and less than 70%) | 4 (Herbicidal rate of 70% or more and less than 90%) | 0 (Herbicidal rate of 5% or less (almost no effect)) | 3 (Herbicidal rate of 40% or more and less than 70%) | 2 (Herbicidal rate of 20% or more and less than 40%) | 0 (Herbicidal rate of 5% or less (almost no effect)) | 5 (Herbicidal rate of 90% or more (almost completely withered)) | 1 (Herbicidal rate of 5% or more and less than 20%) | 2 (Herbicidal rate of 20% or more and less than 40%) | 0 (Herbicidal rate of 5% or less (almost no effect)) | 3 (Herbicidal rate of 40% or more and less than 70%) | 0 (Herbicidal rate of 5% or less (almost no effect)) |  |  |  |  |  |  |  |
| CCCC(=O)Oc1c(C)nn(C)c(=O)c1-c1c(-c2ccc(OC)c(OC)c2)sc2ccccc12 [1-073] | 4 (Herbicidal rate of 70% or more and less than 90%) | 5 (Herbicidal rate of 90% or more (almost completely withered)) | 5 (Herbicidal rate of 90% or more (almost completely withered)) | 5 (Herbicidal rate of 90% or more (almost completely withered)) | 4 (Herbicidal rate of 70% or more and less than 90%) | 5 (Herbicidal rate of 90% or more (almost completely withered)) | 4 (Herbicidal rate of 70% or more and less than 90%) | 2 (Herbicidal rate of 20% or more and less than 40%) | 5 (Herbicidal rate of 90% or more (almost completely withered)) | 5 (Herbicidal rate of 90% or more (almost completely withered)) | 5 (Herbicidal rate of 90% or more (almost completely withered)) | 5 (Herbicidal rate of 90% or more (almost completely withered)) | 4 (Herbicidal rate of 70% or more and less than 90%) | 2 (Herbicidal rate of 20% or more and less than 40%) |  |  |  |  |  |  |  |
| CCCC(=O)Oc1c(C)nn(C)c(=O)c1-c1c(-c2ccc3c(c2)OCCO3)sc2ccccc12 [1-090] | 2 (Herbicidal rate of 20% or more and less than 40%) | 3 (Herbicidal rate of 40% or more and less than 70%) | 4 (Herbicidal rate of 70% or more and less than 90%) |  | 0 (Herbicidal rate of 5% or less (almost no effect)) |  | 1 (Herbicidal rate of 5% or more and less than 20%) | 0 (Herbicidal rate of 5% or less (almost no effect)) |  | 3 (Herbicidal rate of 40% or more and less than 70%) |  | 0 (Herbicidal rate of 5% or less (almost no effect)) | 4 (Herbicidal rate of 70% or more and less than 90%) | 0 (Herbicidal rate of 5% or less (almost no effect)) | 5 (Herbicidal rate of 90% or more (almost completely withered)) | 3 (Herbicidal rate of 40% or more and less than 70%) | 5 (Herbicidal rate of 90% or more (almost completely withered)) | 2 (Herbicidal rate of 20% or more and less than 40%) |  |  |  |
| CCCC(=O)Oc1c(C)nn(C)c(=O)c1-c1c(-c2ccc(C(C)C)cc2)sc2ccccc12 [1-126] |  | 3 (Herbicidal rate of 40% or more and less than 70%) | 1 (Herbicidal rate of 5% or more and less than 20%) |  |  |  |  |  |  |  |  |  | 2 (Herbicidal rate of 20% or more and less than 40%) |  | 2 (Herbicidal rate of 20% or more and less than 40%) | 4 (Herbicidal rate of 70% or more and less than 90%) | 4 (Herbicidal rate of 70% or more and less than 90%) | 4 (Herbicidal rate of 70% or more and less than 90%) | 3 (Herbicidal rate of 40% or more and less than 70%) | 0 (Herbicidal rate of 5% or less (almost no effect)) | H: barnyard grass, herbicidal effect rating [7]: 0 (Herbicidal rate of 5% or less (almost no effect)); I: wild oat, herbicidal effect rating [8]: 0 (Herbicidal rate of 5% or less (almost no effect)); G: green foxtail, herbicidal effect rating [10]: 0 (Herbicidal rate of 5% or less (almost no effect)); F: southern crabgrass, herbicidal effect rating [12]: 0 (Herbicidal rate of 5% or less (almost no effect)); J: blackgrass, herbicidal effect rating [14]: 0 (Herbicidal rate of 5% or less (almost no effect)) |
| Cc1nn(C)c(=O)c(-c2c(-c3ccc(OCc4ccccc4)cc3)sc3ccccc23)c1O [1-133] |  | 3 (Herbicidal rate of 40% or more and less than 70%) | 3 (Herbicidal rate of 40% or more and less than 70%) |  |  |  |  |  |  |  |  |  | 1 (Herbicidal rate of 5% or more and less than 20%) |  | 5 (Herbicidal rate of 90% or more (almost completely withered)) | 1 (Herbicidal rate of 5% or more and less than 20%) | 5 (Herbicidal rate of 90% or more (almost completely withered)) | 5 (Herbicidal rate of 90% or more (almost completely withered)) | 5 (Herbicidal rate of 90% or more (almost completely withered)) | 0 (Herbicidal rate of 5% or less (almost no effect)) | H: barnyard grass, herbicidal effect rating [7]: 2 (Herbicidal rate of 20% or more and less than 40%); I: wild oat, herbicidal effect rating [8]: 0 (Herbicidal rate of 5% or less (almost no effect)); G: green foxtail, herbicidal effect rating [10]: 3 (Herbicidal rate of 40% or more and less than 70%); F: southern crabgrass, herbicidal effect rating [12]: 2 (Herbicidal rate of 20% or more and less than 40%); J: blackgrass, herbicidal effect rating [14]: 0 (Herbicidal rate of 5% or less (almost no effect)) |
